{
  "source": "paper PMC10484922",
  "about": "“Discovery of a selective and biologically active low-molecular weight antagonist of human interleukin-1β” (Nature Communications, 2023)",
  "key": {"[1]": {"system": "normal human dermal fibroblasts stimulated with hIL-1β", "assay": "Human fibroblast IL-6 release assay, hIL-1β stimulated", "assay_type": "cell-based", "design": "IL-6, average / inhibition, replicates of EXP1, EXP2, EXP3 / inhibition, Mean / IL-1beta (mean, SD): mean readout (IL-6 release): unit not given here", "conditions": "for IL-6, average / IL-6, curve fit: per experiment; for % Inhibition (EXP1-EXP3, single experiments) / % Inhibition, Mean: Figure 3b; for % Inhibition, Mean: mean of 3 experiments; for Mean OD (OD 450nm) / IL-1beta (mean, SD): mean readout (IL-6 release): Figure 3c; for Mean OD (OD 450nm): compound 1 nM; for IL-1beta (mean, SD): mean readout (IL-6 release): compound @ 1nM", "method": "We used HEK-Blue™ IL-1β cells that respond specifically to IL-1 (# hkb-il1b, InvivoGen). These cells can detect IL-1α and IL-1β, as these cytokines bind to the same receptor, IL-1R1. They express a Seap reporter gene under the control of the IFN-β minimal promoter fused to five NF-kappaB and five AP-1 binding sites. Thirty microliters (300,000 cells/ml) per well of a 384-well plate were plated overnight. Cells were then stimulated with graded concentrations of cytokines (hIL-1α or hIL-1β) in the absence or presence of canakinumab (Ilaris®, ILARI LYVI 150MG 22GLW.012, batch U003 0409)[22], anakinra (Kineret®, 100 mg/0.67 ml injectable solution, Sobi)[23], or compound (S)-2 (compounds were pre-mixed for 1 h with the cytokine prior to addition to cells) and further incubated overnight before assessment of Seap activity.\nNormal human dermal fibroblasts (NHDF) from Clonetics^TM (LONZA, Cat # CC-2509 (NHDF-Neo), Lot # 0000234242, used at passage ≤14) were seeded at a density of 5000 cells/well in 100 μL of culture medium using 96-well plates (flat bottom, TCT). Treatment with cytokines/compounds was performed as described above. Cells were incubated for another 6 h and were subsequently spun down (320g/3 min). IL-6 was measured in the supernatant by ELISA (BioLegend, # 430503) or HTRF (Cisbio, #62HIL06PEH)."}, "IL-1β": {"molecular_target": "IL-1β (Homo sapiens, UniProt P01584)", "sequence (P01584 117-269)": "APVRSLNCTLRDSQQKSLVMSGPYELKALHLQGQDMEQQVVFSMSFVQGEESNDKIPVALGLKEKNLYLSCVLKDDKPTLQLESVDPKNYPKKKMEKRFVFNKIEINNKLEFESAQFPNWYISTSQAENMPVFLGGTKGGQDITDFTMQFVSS", "assay": "protein-observed 1H-13C-HMQC NMR binding (I/Io of Leu60 Cδ1H3)", "design": "Mature hIL-1β was expressed in Escherichia coli; made in house; host or cells: Escherichia coli BL21 (DE3), pET17b", "conditions": "hIL-1β 50 µM, 500 µM compound", "method": "^1H–^13C- and ^1H–^15N-HMQC spectra were recorded on Bruker AVANCE 600 MHz and 800 MHz spectrometers equipped with TXI-cryocooled probeheads. In ligand binding experiments, protein concentrations were typically 50 μM in PBS, pH 7.4. Backbone assignments of hIL-1β in the ligand-bound state and unliganded state were obtained by a combination of a 3D triple resonance experiment HNCACB and a ^15N-edited NOESY spectrum, which were processed using TOPSPIN 3.2 and analyzed using CcpNmr AnalysisAssign 3.1.0[46]. ^15N-CEST experiments were run at weak B1 radiofrequency fields of 25 and 12.5 Hz on a Bruker AVANCE 800 MHz spectrometer with 113 increments and a total sweep width of 28 ppm in the pseudo-3D dimension. Peak intensities were extracted by fitting pseudo-Voigt lineshape models using peakipy (https://github.com/j-brady/peakipy). Fitted peak intensities were subsequently used to generate CEST profiles, and exchange parameters were fitted using ChemEx (https://github.com/gbouvignies/ChemEx).\nSupplementary Figure 2. 13C-NMR and 19F-NMR reporter assays to monitor early\n13C-HMQC spectra of hIL-1b (50 µM) were acquired in the presence (red) and absence (blue) of 500\nµM compound and rows were extracted at the w1-frequency of the peak corresponding to Leu60 […]"}, "IL-1α": {"molecular_target": "T1, IL-1α (Homo sapiens, UniProt P01583)", "T1 sequence (P01583 113-271)": "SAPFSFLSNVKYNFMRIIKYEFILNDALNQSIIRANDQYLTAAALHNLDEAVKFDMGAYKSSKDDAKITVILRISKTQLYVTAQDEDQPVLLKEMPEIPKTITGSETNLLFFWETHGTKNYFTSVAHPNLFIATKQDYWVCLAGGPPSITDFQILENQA", "assay": "TR-FRET IL-1α/hIL-1R1 receptor displacement assay", "assay_type": "biochemical", "conditions": "read-out: TR-FRET IL-1α IC50", "method": "After 1 h incubation at room temperature, hIL-1R1 (1–332; Alexa 647 labeled; 50 nM final concentration) and anti-His-Europium W1024 (Perkin Elmer; Cat.No. AD0401, 1 nM final concentration) were added to a final volume of 10 μl per well. After 1 h of incubation at room temperature, time-resolved fluorescence was measured at λexc = 320 ± 20 nm, λem = 620 ± 25 nm/665 ± 25 nm using a Pherastar FSX plate reader. All experiments were run in triplicates. The data provided a typical saturation-binding curve, and the IC50 values were calculated by fitting the results to the Hill equation using Prism 7.0 and the in-house software Helios."}, "[2]": {"conditions": "Homo sapiens, Fibroblast, 6 h, human dermal fibroblasts, hIL-1β, 6 h, read-out: IL-6 release IC50"}, "[3]": {"conditions": "Homo sapiens, Fibroblast, source data, read-out: IL-6 IC50, individual experiments"}, "[4]": {"conditions": "Canakinumab concentration 0.00457247 (unit not given)"}, "[5]": {"conditions": "Canakinumab concentration 0.0137174 (unit not given)"}, "[6]": {"conditions": "Canakinumab concentration 0.0411523 (unit not given)"}, "[7]": {"conditions": "Canakinumab concentration 0.123457 (unit not given)"}, "[8]": {"conditions": "Canakinumab concentration 0.37 (unit not given)"}, "[9]": {"conditions": "Canakinumab concentration 1.11 (unit not given)"}, "[10]": {"conditions": "Canakinumab concentration 3.33 (unit not given)"}},
  "note": "Several values for one entry are separate records, joined by “and”; a condition that tells them apart may be missing. Identical values can stand only once. Entries after “also recorded” stand apart in the source; their conditions may differ. Like-named read-outs stand apart in the source and are kept apart here.",
  "data": [
    {"molecule": "Cc1ccc2c(c1)NC(=O)C2(O)c1cc(-c2ccc(C(=O)O)cc2)ccc1O", "note": "(stereo not drawn) [Compound 10]", "values": [
      {"measurement": "IL-6, average", "setting": "[1]; 0.3 uM", "result": 4.183},
      {"measurement": "IL-6, curve fit", "setting": "[1]; 0.3 uM", "result": "2.28E-12"},
      {"measurement": "IL-6, average", "setting": "[1]; 1.2 uM", "result": 7.793},
      {"measurement": "IL-6, curve fit", "setting": "[1]; 1.2 uM", "result": "3.34E-09"},
      {"measurement": "IL-6, average", "setting": "[1]; 3 uM", "result": 7.203},
      {"measurement": "IL-6, curve fit", "setting": "[1]; 3 uM", "result": "4.25E-07"},
      {"measurement": "IL-6, average", "setting": "[1]; 12 uM", "result": 4.254},
      {"measurement": "IL-6, curve fit", "setting": "[1]; 12 uM", "result": 0.0006137},
      {"measurement": "IL-6, average", "setting": "[1]; 33 uM (Cpd 10/11 series)", "result": 6.569},
      {"measurement": "IL-6, curve fit", "setting": "[1]; 33 uM (Cpd 10/11 series)", "result": 0.1292},
      {"measurement": "IL-6, average", "setting": "[1]; 99 uM", "result": 29.3257},
      {"measurement": "IL-6, curve fit", "setting": "[1]; 99 uM", "result": 29.6479},
      {"measurement": "IL-6, average", "setting": "[1]; 300 uM", "result": 100.311},
      {"measurement": "IL-6, curve fit", "setting": "[1]; 300 uM", "result": 99.3118},
      {"measurement": "IC50", "setting": "[1]; [2]", "result": 117, "unit": "µM"},
      {"measurement": "IC50", "setting": "[1]; [3]", "result": 117, "unit": "µM"},
      {"measurement": "I/Io (ratio of peak intensities of Leu60 Cδ1H3 in 1H-13C-HMQC spectra in presence and absence of ligand)", "setting": "IL-1β", "result": "0.1 (N = 1)"},
      {"measurement": "IC50", "setting": "IL-1α", "result": "> 200", "unit": "µM"}
    ]},
    {"molecule": "O=C(O)c1ccccc1-c1ccc(O)c(C2(O)C(=O)Nc3cc(Cl)ccc32)c1", "note": "(stereo not drawn) [Compound 11]", "values": [
      {"measurement": "IL-6, average", "setting": "[1]; 99 uM", "result": "38.1953 and 26.9144"},
      {"measurement": "IL-6, curve fit", "setting": "[1]; 99 uM", "result": "38.6393 and 27.5847"},
      {"measurement": "IL-6, average", "setting": "[1]; 300 uM", "result": "100.608 and 103.181"},
      {"measurement": "IL-6, curve fit", "setting": "[1]; 300 uM", "result": "97.9064 and 99.9483"},
      {"measurement": "IC50", "setting": "[1]; [2]", "result": "112 ± 1", "unit": "µM"},
      {"measurement": "IC50", "setting": "[1]; [3]", "result": 111, "unit": "µM"},
      {"measurement": "IC50", "setting": "[1]; source data, read-out: IL-6 IC50, individual experiments", "result": 113, "unit": "µM"},
      {"measurement": "I/Io (ratio of peak intensities of Leu60 Cδ1H3 in 1H-13C-HMQC spectra in presence and absence of ligand)", "setting": "IL-1β", "result": "<0.1 (N = 1)"},
      {"measurement": "IC50", "setting": "IL-1α", "result": "> 200", "unit": "µM"}
    ]},
    {"molecule": "canakinumab: anti-hIL-1β antibody [reference compound]", "values": [
      {"measurement": "block of hIL-1β driven IL-6 release", "setting": "[1]", "result": "fully blocked; also recorded: selectively inhibited IL-1β driven activity"},
      {"measurement": "% Inhibition (EXP1-EXP3, single experiments)", "setting": "[1]; [4]", "result": "15.5% and 11.1% and 14.6%"},
      {"measurement": "% Inhibition, Mean", "setting": "[1]; [4]", "result": 13.7, "unit": "%"},
      {"measurement": "% Inhibition (EXP1-EXP3, single experiments)", "setting": "[1]; [5]", "result": "23.7% and 27.7% and 26.5%"},
      {"measurement": "% Inhibition, Mean", "setting": "[1]; [5]", "result": 26, "unit": "%"},
      {"measurement": "% Inhibition (EXP1-EXP3, single experiments)", "setting": "[1]; [6]", "result": "29% and 29.6% and 31.5%"},
      {"measurement": "% Inhibition, Mean", "setting": "[1]; [6]", "result": 30, "unit": "%"},
      {"measurement": "% Inhibition (EXP1-EXP3, single experiments)", "setting": "[1]; [7]", "result": "46.1% and 41.8% and 58.9%"},
      {"measurement": "% Inhibition, Mean", "setting": "[1]; [7]", "result": 48.9, "unit": "%"},
      {"measurement": "% Inhibition (EXP1-EXP3, single experiments)", "setting": "[1]; [8]", "result": "71.6% and 66.1% and 70.6%"},
      {"measurement": "% Inhibition, Mean", "setting": "[1]; [8]", "result": 69.4, "unit": "%"},
      {"measurement": "% Inhibition (EXP1-EXP3, single experiments)", "setting": "[1]; [9]", "result": "91.2% and 93.8% and 92.3%"},
      {"measurement": "% Inhibition, Mean", "setting": "[1]; [9]", "result": 92.4, "unit": "%"},
      {"measurement": "% Inhibition (EXP1-EXP3, single experiments)", "setting": "[1]; [10]", "result": "99.3% and 99.2% and 98.7%"},
      {"measurement": "% Inhibition, Mean", "setting": "[1]; [10]", "result": 99, "unit": "%"},
      {"measurement": "Mean OD (OD 450nm)", "setting": "[1]; hu IL-1b 0 pg/mL", "result": 0.033},
      {"measurement": "IL-1beta (mean, SD): mean readout (IL-6 release)", "setting": "[1]; hu IL-1b 0 pg/mL", "result": 0},
      {"measurement": "Mean OD (OD 450nm)", "setting": "[1]; hu IL-1b 40 pg/mL", "result": 0.046},
      {"measurement": "IL-1beta (mean, SD): mean readout (IL-6 release)", "setting": "[1]; hu IL-1b 40 pg/mL", "result": 0},
      {"measurement": "Mean OD (OD 450nm)", "setting": "[1]; hu IL-1b 80 pg/mL", "result": 0.099},
      {"measurement": "IL-1beta (mean, SD): mean readout (IL-6 release)", "setting": "[1]; hu IL-1b 80 pg/mL", "result": 0},
      {"measurement": "Mean OD (OD 450nm)", "setting": "[1]; hu IL-1b 120 pg/mL", "result": 0.15},
      {"measurement": "IL-1beta (mean, SD): mean readout (IL-6 release)", "setting": "[1]; hu IL-1b 120 pg/mL", "result": 353.7},
      {"measurement": "Mean OD (OD 450nm)", "setting": "[1]; hu IL-1b 160 pg/mL", "result": 0.229},
      {"measurement": "IL-1beta (mean, SD): mean readout (IL-6 release)", "setting": "[1]; hu IL-1b 160 pg/mL", "result": 936.8},
      {"measurement": "Mean OD (OD 450nm)", "setting": "[1]; hu IL-1b 200 pg/mL", "result": 0.252},
      {"measurement": "IL-1beta (mean, SD): mean readout (IL-6 release)", "setting": "[1]; hu IL-1b 200 pg/mL", "result": 1110.8}
    ]}
  ]
}
